Data: patent US11369659B2, “Method of enhancing a brain or cognitive function” (Brainon Inc., priority 2015, dated 2022)

Legend:
[1] = test system: scopolamine-induced memory deterioration; assay: Y maze test; type: in vivo, ICR mice; conditions: for spontaneous alternation (memory improving effect): male ICR mice, peptide intraperitoneally 30 minutes before scopolamine, scopolamine 30 minutes before test, compared with scopolamine-administered group
Experimental: Scopolamine was purchased from Sigma-Aldrich (St. Louis, Mo., USA). 4-week-old male ICR mice were purchased from Korean BioLink Co. (Chungbuk, Korea). After an adaptation period of one week, the mice were used in a test and all reagents were administered intraperitoneally.
The mouse was placed at one end of a Y maze with a length of one branch of 30 cm, a width of 5 cm, and a height of 13 cm and the order of entry into each branch was recorded. Alternation was judged to be successful if the mouse sequentially entered three different branches. Spontaneous alternation was defined as Equation below. Spontaneous alternation (%)=the number of alternations/(total number of entries−2)×100

[2] = test system: scopolamine-induced memory deterioration; assay: step-through passive avoidance test; type: in vivo; conditions: male ICR mice; peptide intraperitoneally 30 minutes before scopolamine; scopolamine 30 minutes before test; retention trial after 24 hours; compared with scopolamine-administered group
Experimental: Louis, Mo., USA). 4-week-old male ICR mice were purchased from Korean BioLink Co. (Chungbuk, Korea). After an adaptation period of one week, the mice were used in a test and all reagents were administered intraperitoneally. […] A passive avoidance test was performed in the same bright room and dark room. A floor of each room was formed in a shape in which 2-mm stainless steel rods were separated from each other at 1-cm intervals. Bright squares (20×20×20 cm) had 100-W bulbs. These squares were connected to a guillotine door. For an acquisition trial, the mouse was placed in the bright room after injection of the reagents and the door was opened after 10 seconds. When the mouse completely entered the dark room, the door was closed and electric shock was applied for 3 seconds. A retention trial was performed after 24 hours of the acquisition trial and the mouse was positioned in the bright room. A latency time of the acquisition and retention trials was measured by a time until the mouse entered the dark room of the box after the door was opened. The retention latency in the passive avoidance test represents a long-term memory function in rodents.

Row | Compound | mean of spontaneous alternations ([1]; scopolamine-injected group compared with normal saline group) | spontaneous alternation (memory improving effect) [1] | retention trial latency time (memory improving effect) [2] | spontaneous alternation (memory improving effect) ([1]; listed as sequence number 2)
1 | CN1[C@@H]2C[C@@H](OC(=O)[C@H](CO)c3ccccc3)C[C@H]1[C@@H]1O[C@@H]12 [scopolamine, Scopolamine, reference compound] | significantly lowered | – | – | –
2 | AGAG [Peptide-3] | – | excellent effect as compared with a control group | a little effect | –
3 | GAG [Peptide-2] | – | slight improvement | improved to be close to a normal group administered with saline | excellent effect as compared with a control group
